{"source": "patent US8691820B2", "about": "“CDK inhibitors” (Curis, Inc., priority 2008, dated 2014)", "key": {"CDK1": {"biological_target": "CDK1 (Homo sapiens, UniProt P06493)", "sequence (P06493 whole entry)": "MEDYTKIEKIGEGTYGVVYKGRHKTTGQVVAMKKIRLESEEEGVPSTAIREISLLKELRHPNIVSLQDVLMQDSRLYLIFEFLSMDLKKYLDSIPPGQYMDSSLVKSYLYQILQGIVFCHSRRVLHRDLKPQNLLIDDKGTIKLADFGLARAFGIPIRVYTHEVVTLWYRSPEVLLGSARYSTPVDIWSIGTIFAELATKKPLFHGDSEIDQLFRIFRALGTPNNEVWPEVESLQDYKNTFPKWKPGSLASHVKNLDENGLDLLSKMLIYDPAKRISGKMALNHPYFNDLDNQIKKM", "sequence (P14635 whole entry partner)": "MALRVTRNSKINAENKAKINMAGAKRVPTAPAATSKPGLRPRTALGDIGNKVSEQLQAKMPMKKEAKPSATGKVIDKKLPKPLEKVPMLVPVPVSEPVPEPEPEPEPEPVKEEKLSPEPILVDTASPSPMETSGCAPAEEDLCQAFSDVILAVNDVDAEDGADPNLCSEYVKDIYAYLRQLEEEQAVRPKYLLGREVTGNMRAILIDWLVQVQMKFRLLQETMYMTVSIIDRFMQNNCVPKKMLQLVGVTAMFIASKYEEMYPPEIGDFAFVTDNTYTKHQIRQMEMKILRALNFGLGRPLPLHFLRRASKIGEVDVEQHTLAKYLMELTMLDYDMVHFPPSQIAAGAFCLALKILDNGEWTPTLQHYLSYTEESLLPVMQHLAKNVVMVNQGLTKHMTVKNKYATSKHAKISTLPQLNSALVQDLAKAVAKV", "assay": "CDK1 kinase inhibition (Table B)", "format": "biochemical"}, "CDK9": {"biological_target": "CDK9 (Homo sapiens, UniProt P50750)", "sequence (P50750 whole entry)": "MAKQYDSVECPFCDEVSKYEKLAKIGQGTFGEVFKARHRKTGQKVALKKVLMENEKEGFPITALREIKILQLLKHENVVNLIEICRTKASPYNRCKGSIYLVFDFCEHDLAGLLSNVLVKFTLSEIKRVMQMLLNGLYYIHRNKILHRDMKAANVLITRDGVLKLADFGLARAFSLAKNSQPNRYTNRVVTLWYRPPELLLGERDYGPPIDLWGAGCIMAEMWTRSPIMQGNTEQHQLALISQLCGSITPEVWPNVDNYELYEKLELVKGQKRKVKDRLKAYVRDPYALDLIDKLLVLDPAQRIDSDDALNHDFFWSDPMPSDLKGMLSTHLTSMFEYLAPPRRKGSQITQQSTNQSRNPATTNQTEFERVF", "sequence (O60563 whole entry partner)": "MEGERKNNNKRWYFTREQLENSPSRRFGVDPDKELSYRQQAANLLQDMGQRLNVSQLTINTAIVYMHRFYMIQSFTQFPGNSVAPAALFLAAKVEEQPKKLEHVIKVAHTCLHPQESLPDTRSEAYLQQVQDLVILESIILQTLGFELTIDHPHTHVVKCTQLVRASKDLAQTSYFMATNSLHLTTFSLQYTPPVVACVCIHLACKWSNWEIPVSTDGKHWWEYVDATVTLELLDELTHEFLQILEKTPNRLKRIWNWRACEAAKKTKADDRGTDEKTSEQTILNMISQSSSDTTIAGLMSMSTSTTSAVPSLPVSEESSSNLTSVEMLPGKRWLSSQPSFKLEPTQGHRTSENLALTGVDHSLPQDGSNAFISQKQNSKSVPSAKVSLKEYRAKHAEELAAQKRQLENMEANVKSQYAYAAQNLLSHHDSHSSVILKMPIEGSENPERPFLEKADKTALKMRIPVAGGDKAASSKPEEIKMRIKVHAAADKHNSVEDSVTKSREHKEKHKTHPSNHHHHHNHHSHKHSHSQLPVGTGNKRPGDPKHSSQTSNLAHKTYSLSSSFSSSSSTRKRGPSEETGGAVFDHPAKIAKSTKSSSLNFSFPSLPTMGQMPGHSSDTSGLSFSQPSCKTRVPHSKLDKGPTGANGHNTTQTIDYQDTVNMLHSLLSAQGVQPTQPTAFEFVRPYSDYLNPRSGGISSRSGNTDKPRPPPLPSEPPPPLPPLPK", "assay": "CDK9 kinase inhibition (Table B)", "format": "biochemical"}, "CDK2/cyclinA": {"biological_target": "T1, CDK2/cyclinA (Homo sapiens, UniProt P24941)", "T1 construct": "C-terminal 6His-tagged human full length cdk2 (MW=35 kDa); 6His (C); made in house; host or cells: Sf21 insect cells (baculovirus)", "assay": "CDK2 kinase assay (33P-ATP, Histone H1 substrate)", "format": "biochemical", "details": "1 μM ATP, 5 μM Histon H1, 2 hours at room temperature", "description": "CDK2/cyclinA (Accession number for CDK2; EMBL M68520, for cyclin A; EMBL X51688): C-terminal 6His-tagged human full length cdk2 (MW=35 kDa), and N-terminal GST-tagged human full length cyclin A (MW=75 kDa) were expressed individually with baculovirus system in Sf21 insect cells. Recombinant cdk2 protein was purified with Ni2+/NTA agarose and then activated using CAK and repurified by Q Sepharose and Ni2+/NTA agarose. Recombinant cyclin A was purified using glutathione-agarose. They were then mixed in vitro to form protein complex. Recombinant protein complex was measured to be 67% in purity with SDS-PAGE and Coomassie blue staining. Specific activity of purified enzyme was measured to be 158 U/mg, where one unit of cdk2/cyclinA activity is defined as 1 nmol phosphate incorporated into 0.1 mg/ml histone H1 per minute at 30° C. with a final ATP concentration of […]. Enzyme was stored at a concentration of 0.1 mg/ml in 50 mM Tris/HCl pH7.5, 150 mM NaCl, 0.1 mM EGTA, 0.03% Brij-35, 270 mM sucrose, 1 mM benzamidine, 0.2 mM PMSF, 0.1% 2-mercaptoethanol. Frozen solution.\nHiston H1 (Substrate for CDK2): Histone H1 (Sigma cat#H4524), was purified as a lysine rich fraction from calf thymus with 93% purity (MW=21.5 kDa). Purified protein was stored at a concentration of 20 mg/ml=930 μM in distilled water.\n[…] (0.5 nmol) and 5 μM Histon H1 were mixed in the reaction buffer (20 mM HEPES (pH 7.5), 10 mM MgCl2, 1 mM EGTA, 0.02% Brij 35, 0.02 mg/ml BSA, 0.1 mM Na3VO4, 2 mM DTT) with final concentration of 1 μM ATP and 1% DMSO. The reaction was incubated for 2 hours at room temperature and conversion rate of ATP is about 4.5%. An equal volume of 25% TCA was added to stop the reaction and precipitate the labeled peptides. Precipitated proteins were trapped onto glass fiber B filterplates and excess […] p33 ATP was washed off. The plates were allowed to air-dry prior to the addition of 30 uL/well of Packard Microscint 20. The amount of incorporated isotope was measured using a Perkin Elmer TopCount plate reader. Different concentrations of compounds were added to reaction to assess the activity of compounds to inhibit […]. IC50 was calculated using Prism software with sigmoidal dose-response curve fitting.\nThe following TABLE B lists compounds representative of the invention and their activity in the CDK2 assay. In this assay, the following grading was used: I≧10 μM, 10 μM>II>1 μM, 1 μM>III>0.1 μM, and IV≦0.1 μM for IC50."}, "CDK3": {"biological_target": "CDK3 (Homo sapiens, UniProt Q00526)", "sequence (Q00526 whole entry)": "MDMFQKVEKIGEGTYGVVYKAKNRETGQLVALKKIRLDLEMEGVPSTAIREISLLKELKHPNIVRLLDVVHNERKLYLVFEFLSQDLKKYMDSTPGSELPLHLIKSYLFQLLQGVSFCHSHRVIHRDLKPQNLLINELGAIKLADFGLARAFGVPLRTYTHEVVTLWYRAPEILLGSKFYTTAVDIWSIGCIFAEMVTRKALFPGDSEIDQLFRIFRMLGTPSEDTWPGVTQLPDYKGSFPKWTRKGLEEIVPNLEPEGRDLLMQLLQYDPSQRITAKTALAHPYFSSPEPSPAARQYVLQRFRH", "sequence (P24864 whole entry partner)": "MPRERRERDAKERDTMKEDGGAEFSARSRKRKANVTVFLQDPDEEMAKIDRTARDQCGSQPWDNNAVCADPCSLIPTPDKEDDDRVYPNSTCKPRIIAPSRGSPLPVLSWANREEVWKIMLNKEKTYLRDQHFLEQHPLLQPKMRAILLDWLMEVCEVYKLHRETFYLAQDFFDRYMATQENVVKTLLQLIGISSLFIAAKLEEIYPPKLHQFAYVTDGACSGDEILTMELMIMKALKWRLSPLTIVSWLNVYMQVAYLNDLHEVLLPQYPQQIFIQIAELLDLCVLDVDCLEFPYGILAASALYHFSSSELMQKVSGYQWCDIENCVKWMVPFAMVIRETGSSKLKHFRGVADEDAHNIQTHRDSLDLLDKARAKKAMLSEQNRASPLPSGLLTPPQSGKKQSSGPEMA", "assay": "CDK3 kinase inhibition (Table B)", "format": "biochemical"}, "CDK4": {"biological_target": "CDK4 (Homo sapiens, UniProt P11802)", "sequence (P11802 whole entry)": "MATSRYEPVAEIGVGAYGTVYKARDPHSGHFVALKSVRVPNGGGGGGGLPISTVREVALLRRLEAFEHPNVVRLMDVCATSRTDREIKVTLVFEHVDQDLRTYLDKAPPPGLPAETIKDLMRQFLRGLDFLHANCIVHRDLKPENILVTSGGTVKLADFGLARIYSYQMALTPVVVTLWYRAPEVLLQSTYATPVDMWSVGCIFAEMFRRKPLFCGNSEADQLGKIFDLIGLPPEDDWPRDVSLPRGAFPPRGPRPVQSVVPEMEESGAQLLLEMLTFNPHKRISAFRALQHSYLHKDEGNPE", "sequence (P24385 whole entry partner)": "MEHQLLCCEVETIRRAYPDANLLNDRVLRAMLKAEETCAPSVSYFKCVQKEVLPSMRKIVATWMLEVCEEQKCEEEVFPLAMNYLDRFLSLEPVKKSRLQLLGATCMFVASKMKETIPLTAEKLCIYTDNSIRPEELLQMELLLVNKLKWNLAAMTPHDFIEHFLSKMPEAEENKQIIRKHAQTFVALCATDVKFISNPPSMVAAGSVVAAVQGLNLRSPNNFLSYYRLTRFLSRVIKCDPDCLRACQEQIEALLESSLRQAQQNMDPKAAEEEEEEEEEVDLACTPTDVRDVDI", "assay": "CDK4 kinase inhibition (Table B)", "format": "biochemical"}}, "data": [{"smiles": "CC(C)N(O)C(=O)CCCCCCC(=O)Nc1ncc(SCc2ncc(C(C)(C)C)o2)s1", "note": "[Compound 5, N^1-(5-((5-tert-butyloxazol-2-yl)methylthio)thiazol-2-yl)-N^8-hydroxy-N^8-isopropyloctanediamide]", "values": [{"measurement": "IC50", "setting": "CDK1", "result": "≤ 100", "unit": "nM"}, {"measurement": "IC50", "setting": "CDK9", "result": "≤ 100", "unit": "nM"}, {"measurement": "IC50", "setting": "CDK2/cyclinA", "result": "≤ 100", "unit": "nM"}, {"measurement": "IC50", "setting": "CDK3", "result": "≤ 100", "unit": "nM"}, {"measurement": "IC50", "setting": "CDK4", "result": "100 to 1000", "unit": "nM"}]}, {"smiles": "CC(C)(C)c1cnc(CSc2cnc(NC(=O)CCCCCCC(=O)Nc3ccccc3N)s2)o1", "note": "[Compound 18, N^1-(2-aminophenyl)-N^8-(5-((5-tert-butyloxazol-2-yl)methylthio)thiazol-2-yl)octanediamide]", "values": [{"measurement": "IC50", "setting": "CDK1", "result": "≤ 100", "unit": "nM"}, {"measurement": "IC50", "setting": "CDK9", "result": "≤ 100", "unit": "nM"}, {"measurement": "IC50", "setting": "CDK2/cyclinA", "result": "≤ 100", "unit": "nM"}, {"measurement": "IC50", "setting": "CDK3", "result": "≤ 100", "unit": "nM"}, {"measurement": "IC50", "setting": "CDK4", "result": "100 to 1000", "unit": "nM"}]}, {"smiles": "CC(C)(C)c1cnc(CSc2cnc(NC(=O)CCCCCCC(=O)Nc3cc(C(F)(F)F)ccc3N)s2)o1", "note": "[Compound 24, N^1-(2-amino-5-(trifluoromethyl)phenyl)-N^8-(5-((5-tert-butyloxazol-2-yl)methylthio)thiazol-2-yl)octanediamide]", "values": [{"measurement": "IC50", "setting": "CDK2/cyclinA", "result": "≤ 100", "unit": "nM"}, {"measurement": "melting point", "result": "77 to 82", "unit": "°C"}]}, {"smiles": "CC(C)(C)c1cnc(CSc2cnc(NC(=O)CCCCCCC(=O)Nc3ccc(C(F)(F)F)cc3N)s2)o1", "note": "[Compound 25, N^1-(2-amino-4-(trifluoromethyl)phenyl)-N^8-(5-((5-tert-butyloxazol-2-yl)methylthio)thiazol-2-yl)octanediamide]", "values": [{"measurement": "IC50", "setting": "CDK2/cyclinA", "result": "≤ 100", "unit": "nM"}, {"measurement": "melting point", "result": "114 to 116", "unit": "°C"}]}, {"smiles": "CC(C)(C)c1cnc(CSc2cnc(NC(=O)Cc3ccc(OCCCC(=O)Nc4ccc(F)cc4N)cc3)s2)o1", "note": "[Compound 59, N-(2-amino-4-fluorophenyl)-4-(4-(2-(5-((5-tert-butyloxazol-2-yl)methylthio)thiazol-2-ylamino)-2-oxoethyl)phenoxy)butanamide]", "values": [{"measurement": "IC50", "setting": "CDK2/cyclinA", "result": "≤ 100", "unit": "nM"}]}, {"smiles": "CC(C)(C)c1cnc(CSc2cnc(NC(=O)Cc3ccc(OCCCC(=O)Nc4cc(F)ccc4N)cc3)s2)o1", "note": "[Compound 60, N-(2-amino-5-fluorophenyl)-4-(4-(2-(5-((5-tert-butyloxazol-2-yl)methylthio)thiazol-2-ylamino)-2-oxoethyl)phenoxy)butanamide]", "values": [{"measurement": "IC50", "setting": "CDK2/cyclinA", "result": "≤ 100", "unit": "nM"}]}, {"smiles": "CC(C)(C)c1cnc(CSc2cnc(NC(=O)Cc3ccc(OCCCC(=O)Nc4ccccc4)cc3)s2)o1", "note": "[Compound 61, 4-(4-(2-(5-((5-tert-butyloxazol-2-yl)methylthio)thiazol-2-ylamino)-2-oxoethyl)phenoxy)-N-phenylbutanamide]", "values": [{"measurement": "IC50", "setting": "CDK2/cyclinA", "result": "≤ 100", "unit": "nM"}]}, {"smiles": "CC(C)(C)c1cnc(CSc2cnc(NC(=O)Cc3ccc(OCCCC(=O)Nc4ccncc4)cc3)s2)o1", "note": "[Compound 62, 4-(4-(2-(5-((5-tert-butyloxazol-2-yl)methylthio)thiazol-2-ylamino)-2-oxoethyl)phenoxy)-N-(pyridin-4-yl)butanamide]", "values": [{"measurement": "IC50", "setting": "CDK2/cyclinA", "result": "≤ 100", "unit": "nM"}]}, {"smiles": "CC(C)(C)c1cnc(CSc2cnc(NC(=O)Cc3ccc(OCCCC(=O)Nc4cccnc4)cc3)s2)o1", "note": "[Compound 63, 4-(4-(2-(5-((5-tert-butyloxazol-2-yl)methylthio)thiazol-2-ylamino)-2-oxoethyl)phenoxy)-N-(pyridin-3-yl)butanamide]", "values": [{"measurement": "IC50", "setting": "CDK2/cyclinA", "result": "≤ 100", "unit": "nM"}]}, {"smiles": "CC(C)(C)c1cnc(CSc2cnc(NC(=O)Cc3ccc(OCCCC(=O)Nc4ccccn4)cc3)s2)o1", "note": "[Compound 64, 4-(4-(2-(5-((5-tert-butyloxazol-2-yl)methylthio)thiazol-2-ylamino)-2-oxoethyl)phenoxy)-N-(pyridin-2-yl)butanamide]", "values": [{"measurement": "IC50", "setting": "CDK2/cyclinA", "result": "≤ 100", "unit": "nM"}, {"measurement": "melting point", "result": "126 to 129", "unit": "°C"}]}]}
